Measurements taken from article PMC12505902, “Inhibitors of trehalose-6-phosphate synthase activity in fungal pathogens compromise thermal tolerance pathways” (mBio, 2025).

Assays:
6xHis-CnTps1 = 6xHis-CnTps1 (Cryptococcus neoformans var. grubii, UniProt J9VJZ1); assay: Spectrophotometric-coupled Tps1 enzyme activity assay; type: biochemical, C. neoformans; details: 1 mM 4456dh
Experimental: Fig 2 4456dh binds Tps1 and inhibits Tps1 activity. (A) Structure of 4456dh. (B and C) Glo-melt thermal shift assays reveal 4456dh destabilizes 6xHis-CaTps1 (B) and 6xHis-CnTps1 (C). The first derivative of the raw data was used to determine the melting temperature of 1 µM 6xHis-CaTps1 (B) and 1 µM 6xHis-CnTps1 (C) treated without (black) or with 2 mM 4456dh (red). […] The resulting dose-response curves were fitted to a one-site binding model to extract Kd values; the SD was calculated using the Kd values from each independent experiment (n = 3). (F) Tps1 enzyme activity assay with 5 µM 6xHis-CaTps1 (F) and 6xHis-CnTps1 (G) ±1 mM 4456dh. Error bars represent SE. […]
The ability of 4456dh to inhibit the activity of CaTps1 was tested using a spectrophotometric-coupled Tps1 enzyme assay, in which recombinant 6xHis-CaTps1 was incubated with 1 mM 4456dh at 4°C for 16 hours. […] Similarly, the effect of 1 mM 4456dh on 6xHis-CnTps1 activity was determined. […]
82 determined by SDS-PAGE analysis, were pooled and concentrated to 1 mg/mL for downstream […]
93 The data were acquired with MO.Control 1.5.3 (NanoTemper Technologies GmbH). Recorded
94 data were analyzed with MO.Affinity Analysis 2.2.7 (NanoTemper Technologies GmbH). […]
100 2X Glo-melt dye. Thermal denaturation was measured using an RT-PCR thermocycler (BioRad) […]
102 determined by identifying the inflection point of the derivative data. […]

[1] = tested on: C. albicans WT strain SC5314; assay: C. albicans filamentation assay (serum-induced); type: cell-based; details: YPD plus 10% fetal bovine serum, 37°C, 2 hours; sub-MIC concentration (5 µM as printed)

6xHis-CnTps1, sequence (J9VJZ1 entry or part of it): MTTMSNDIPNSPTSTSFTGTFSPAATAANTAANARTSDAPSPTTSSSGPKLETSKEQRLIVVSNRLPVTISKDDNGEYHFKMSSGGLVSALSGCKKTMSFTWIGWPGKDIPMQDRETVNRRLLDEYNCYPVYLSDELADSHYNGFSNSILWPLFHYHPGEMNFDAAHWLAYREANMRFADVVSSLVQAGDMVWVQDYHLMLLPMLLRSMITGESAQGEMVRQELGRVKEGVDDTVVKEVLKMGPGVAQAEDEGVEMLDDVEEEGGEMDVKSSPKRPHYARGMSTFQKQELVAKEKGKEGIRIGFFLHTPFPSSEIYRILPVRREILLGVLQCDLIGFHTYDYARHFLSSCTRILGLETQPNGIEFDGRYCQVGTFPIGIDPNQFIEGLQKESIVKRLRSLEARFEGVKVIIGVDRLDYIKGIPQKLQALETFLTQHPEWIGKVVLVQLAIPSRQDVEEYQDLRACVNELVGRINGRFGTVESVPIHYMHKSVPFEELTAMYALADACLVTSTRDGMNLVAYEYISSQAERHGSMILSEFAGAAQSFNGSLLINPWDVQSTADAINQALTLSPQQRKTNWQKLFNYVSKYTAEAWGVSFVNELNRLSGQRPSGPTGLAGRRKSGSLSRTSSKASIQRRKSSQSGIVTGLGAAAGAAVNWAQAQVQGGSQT

For `Cn1cc(-c2csc(NC(=O)Cc3ccccn3)n2)cn1` [Compound 4456dh], the inhibition at 1000 µM (6xHis-CnTps1) was roughly 30% and the filamentation [1] was “complete inhibition of filamentation”.
